The record followed here is patent US20260097022A1, “COMPOUNDS AND USES THEREOF” (Integrated Biosciences, Inc., priority 2023, published 2026).

This assay concerns etoposide-treated IMR-90 cells. The experiment in a line: Etoposide-induced senescence model, resazurin cell viability (screen and dose-response). The assay is classed as cell-based, human. Conditions: etoposide-induced senescence model; ratio of IC50 values between etoposide- and DMSO-treated IMR-90 fibroblasts. On the procedure:
Cell culture. Human lung fibroblast (IMR-90) cells were obtained from ATCC (CCL-186) and passaged less than 10 times (less than 30 population doublings) for all experiments described in this example, with the exception of high-passage cells used in the model of replicative senescence (see the section on Replicative senescence below). Cells were cultured in growth media comprising Eagle's Minimum Essential Medium (EMEM: ATCC 30-2003) supplemented with 10% fetal bovine serum (FBS: Thermo Fisher 16140071) and 1% penicillin-streptomycin (Thermo Fisher 15070063). Cells were incubated in a humidity-controlled incubator at 37° C., with 5% CO2. Cells were detached using trypsin-EDTA (0.05%; Gibco 25300120).
Etoposide-induced senescence. IMR-90 cells were cultured as described above. At between 30 to 50% confluence, the media was replaced with complete growth media containing vehicle (0.5% dimethyl sulfoxide: DMSO, MilliporeSigma D5879) or complete growth media containing 50 μM etoposide (prepared as a 1:200 dilution of a 10 mM stock solution in DMSO; etoposide, MilliporeSigma E1383). Cells were treated for 2 days, after which the media was replaced with fresh growth media and cells were allowed to recover for 4 days. Cells were then plated as described below.
Chemical screening. For all screening experiments. 99 μL of cells were plated into each well of a 96-well clear flat-bottom, black polystyrene tissue-culture-treated plate (Corning 3904) at a density of ˜10+ cells/well. Plates were incubated overnight for adhesion. The day after plating. 1 μL of each compound, prepared as either a 1 mM stock solution in DMSO (10 μM final concentration screen) or 0.1 mM stock solution in DMSO (1 μM final concentration screen), was added to each well using an Agilent Bravo liquid handler. A built-in slow mixing step involving aspirating and dispensing was used to enhance distribution of the added compounds in solution. Cells were incubated for 3 days, after which resazurin (MilliporeSigma R^7017) was added to each well to a final concentration of 0.15 mM. After an additional 1 day of incubation, the fluorescence excitation/emission at 550/590 nm was read using a SpectraMaxR M3 plate reader and manufacturer software (SoftMax Pro R 6). Experiments were performed in biological duplicate.
Three-fold serial dilutions of compound were prepared in DMSO, then added to cell plates (final concentration of DMSO. 1%). Cell viability was then assayed as detailed above, and resazurin fluorescence values were linearly interpolated with respect to values from empty and positive control (non-treatment) wells. Experiments were performed in biological duplicate each on two independent occasions. When possible, chemical stocks from commercial suppliers were used: econazole nitrate (Cayman Chemical 20223), artenimol (Cayman Chemical 19846), and ABT-263 (Cayman Chemical 11500) were from Cayman Chemical, and dehydrodeguelin was aliquoted from the screening library.
Calculation of cellular viability values in dose-response curves. […] For each sample, the fluorescence intensity value was normalized by the mean of two untreated control values. Cellular viability values are therefore indicated as fractions of the cellular viability of untreated controls. Vehicle (1% DMSO) control values are included in each dose-response curve. Experiments were performed in biological duplicate each on two independent occasions.
Calculation of baseline cellular viability values. […] Additionally, baseline cellular viability values were calculated for untreated cells at the start of the experiment. Resazurin was added to a final concentration of 0.15 mM on the day of seeding (corresponding to day 0 in FIG. 7).
A general note: Alamar Blue is a resazurin reagent that responds to reducing activity.
Take `CCOc1ccc(C(=O)Nc2ccc3nc(SCC(=O)Nc4cc(C)cc(C)c4)sc3c2)cc1` [compound 43]: the “Therapeutic Index (TI)” value was “++ (compounds with a TI of 1 to 5 were labelled as ++)”.

`COc1ccccc1C(=O)Nc1ccc2nc(SCC(=O)Nc3c(C)cc(C)cc3C)sc2c1` [compound 44]: the “Therapeutic Index (TI)” value was “++ (compounds with a TI of 1 to 5 were labelled as ++)”.

In the case of `COc1cccc(C(=O)Nc2ccc3nc(SCC(=O)N(C)c4ccccc4)sc3c2)c1` [compound 45], the “Therapeutic Index (TI)” value is reported as “++ (compounds with a TI of 1 to 5 were labelled as ++)”.

As for `Cc1ccc(Cl)cc1NC(=O)CSc1nc2ccc(NC(=O)c3ccccc3C)cc2s1` [compound 46], the “Therapeutic Index (TI)” value is reported as “++ (compounds with a TI of 1 to 5 were labelled as ++)”.

For the molecule `CCOc1ccc(C(=O)Nc2ccc3nc(SCC(=O)Nc4ccc(C)cc4C)sc3c2)cc1` [compound 47], the “Therapeutic Index (TI)” value is reported as “++ (compounds with a TI of 1 to 5 were labelled as ++)”.

As to `COc1ccc(NC(=O)CSc2nc3ccc(NC(=O)c4cccc(F)c4)cc3s2)cc1` [compound 48], the “Therapeutic Index (TI)” value is given as “++ (compounds with a TI of 1 to 5 were labelled as ++)”.

Take `CCOc1ccc(C(=O)Nc2ccc3nc(SCC(=O)N(C)c4ccccc4)sc3c2)cc1` [compound 49]: the “Therapeutic Index (TI)” value is listed as “++ (compounds with a TI of 1 to 5 were labelled as ++)”.

Consider `CCCCOc1ccc(NC(=O)CSc2nc3ccc(NC(=O)c4ccccc4Br)cc3s2)cc1` [compound 50], for which the “Therapeutic Index (TI)” value is “++ (compounds with a TI of 1 to 5 were labelled as ++)”.

As for `O=C(CSc1nc2ccc(NC(=O)c3ccc(F)cc3)cc2s1)Nc1cccc(Cl)c1` [compound 51], the “Therapeutic Index (TI)” value is reported as “++ (compounds with a TI of 1 to 5 were labelled as ++)”.

Consider `COc1ccc(NC(=O)CSc2nc3ccc(NC(=O)c4ccccc4C)cc3s2)cc1` [compound 52], for which the “Therapeutic Index (TI)” value is reported as “++ (compounds with a TI of 1 to 5 were labelled as ++)”.

Turning to `COc1cccc(C(=O)Nc2ccc3nc(SCC(=O)Nc4ccccc4)sc3c2)c1` [compound 53], the “Therapeutic Index (TI)” value is “++ (compounds with a TI of 1 to 5 were labelled as ++)”.

For the molecule `CCCCOc1ccc(NC(=O)CSc2nc3ccc(NC(=O)c4cccc5ccccc45)cc3s2)cc1` [compound 54], the “Therapeutic Index (TI)” value is recorded as “++ (compounds with a TI of 1 to 5 were labelled as ++)”.

In the case of `COc1ccc(NC(=O)CSc2nc3ccc(NC(=O)c4cccc(C)c4)cc3s2)cc1` [compound 55], the “Therapeutic Index (TI)” value was “++ (compounds with a TI of 1 to 5 were labelled as ++)”.

With `Cc1ccc(C(=O)Nc2ccc3nc(SCC(=O)Nc4ccccc4F)sc3c2)cc1` [compound 56], the “Therapeutic Index (TI)” value is listed as “++ (compounds with a TI of 1 to 5 were labelled as ++)”.

Consider `COc1ccc(NC(=O)CSc2nc3ccc(NC(=O)c4ccccc4)cc3s2)cc1` [compound 57], for which the “Therapeutic Index (TI)” value was “++ (compounds with a TI of 1 to 5 were labelled as ++)”.

With `Cc1cc(C)c(NC(=O)CSc2nc3ccc(NC(=O)c4ccccc4Cl)cc3s2)c(C)c1` [compound 58], the “Therapeutic Index (TI)” value is “++ (compounds with a TI of 1 to 5 were labelled as ++)”.

For the molecule `COc1ccccc1C(=O)Nc1ccc2nc(SCC(=O)Nc3c(C)cccc3C)sc2c1` [compound 59], the “Therapeutic Index (TI)” value is recorded as “++ (compounds with a TI of 1 to 5 were labelled as ++)”.

Regarding `COc1ccc(C(=O)Nc2ccc3nc(SCC(=O)Nc4ccccc4C)sc3c2)cc1` [compound 60], the “Therapeutic Index (TI)” value is given as “++ (compounds with a TI of 1 to 5 were labelled as ++)”.

Turning to `Cc1ccc(Cl)cc1NC(=O)CSc1nc2ccc(NC(=O)c3ccc(F)cc3)cc2s1` [compound 61], the “Therapeutic Index (TI)” value was “++ (compounds with a TI of 1 to 5 were labelled as ++)”.

As to `O=C(CSc1nc2ccc(NC(=O)c3ccc(Cl)cc3)cc2s1)Nc1ccc(F)cc1` [compound 62], the “Therapeutic Index (TI)” value was “++ (compounds with a TI of 1 to 5 were labelled as ++)”.

As to `COc1ccc(C(=O)Nc2ccc3nc(SCC(=O)Nc4ccccc4Cl)sc3c2)cc1` [compound 63], the “Therapeutic Index (TI)” value is “++ (compounds with a TI of 1 to 5 were labelled as ++)”.

As to `CCOc1ccc(C(=O)Nc2ccc3nc(SCC(=O)Nc4ccccc4Cl)sc3c2)cc1` [compound 64], the “Therapeutic Index (TI)” value is “++ (compounds with a TI of 1 to 5 were labelled as ++)”.

Take `CCC(Sc1nc2ccc(NC(=O)c3ccc(C)cc3)cc2s1)C(=O)Nc1ccc(Cl)cc1` (stereo not drawn) [compound 65]: the “Therapeutic Index (TI)” value is listed as “++ (compounds with a TI of 1 to 5 were labelled as ++)”.

As to `COc1ccc(NC(=O)CSc2nc3ccc(NC(=O)c4ccccc4Cl)cc3s2)cc1` [compound 66], the “Therapeutic Index (TI)” value is listed as “++ (compounds with a TI of 1 to 5 were labelled as ++)”.

For `COC(=O)c1ccccc1NC(=O)CSc1nc2ccc(NC(=O)c3ccccc3C)cc2s1` [compound 67], the “Therapeutic Index (TI)” value was “++ (compounds with a TI of 1 to 5 were labelled as ++)”.

For `O=C(CSc1nc2ccc(NC(=O)c3ccccc3)cc2s1)Nc1cccc(C(F)(F)F)c1` [compound 68], the “Therapeutic Index (TI)” value is given as “++ (compounds with a TI of 1 to 5 were labelled as ++)”.

As for `CCc1cccc(CC)c1NC(=O)CSc1nc2ccc(NC(=O)c3ccccc3C)cc2s1` [compound 69], the “Therapeutic Index (TI)” value is listed as “++ (compounds with a TI of 1 to 5 were labelled as ++)”.

Regarding `Cc1cccc(C(=O)Nc2ccc3nc(SCC(=O)Nc4cc(Cl)ccc4C)sc3c2)c1` [compound 70], the “Therapeutic Index (TI)” value is on record as “++ (compounds with a TI of 1 to 5 were labelled as ++)”.

Turning to `COc1ccccc1C(=O)Nc1ccc2nc(SCC(=O)N(C)c3ccccc3)sc2c1` [compound 71], the “Therapeutic Index (TI)” value was “++ (compounds with a TI of 1 to 5 were labelled as ++)”.

Turning to `Cc1cc(C)c(NC(=O)CSc2nc3ccc(NC(=O)c4ccccc4C)cc3s2)c(C)c1` [compound 72], the “Therapeutic Index (TI)” value was “++ (compounds with a TI of 1 to 5 were labelled as ++)”.

With `Cc1ccccc1C(=O)Nc1ccc2nc(SCC(=O)Nc3ccc([N+](=O)[O-])cc3)sc2c1` [compound 73], the “Therapeutic Index (TI)” value is “++ (compounds with a TI of 1 to 5 were labelled as ++)”.

For the molecule `COc1ccc(C(=O)Nc2ccc3nc(SCC(=O)Nc4ccc(C)c(Cl)c4)sc3c2)cc1` [compound 74], the “Therapeutic Index (TI)” value was “++ (compounds with a TI of 1 to 5 were labelled as ++)”.

Consider `Cc1ccccc1C(=O)Nc1ccc2nc(SCC(N)=O)sc2c1` [compound 75], for which the “Therapeutic Index (TI)” value was “++ (compounds with a TI of 1 to 5 were labelled as ++)”.

On to `CCCCOc1ccc(C(=O)Nc2ccc3nc(SCC(=O)Nc4ccccc4)sc3c2)cc1` [compound 76], for which the “Therapeutic Index (TI)” value is given as “++ (compounds with a TI of 1 to 5 were labelled as ++)”.

Regarding `CCCCOc1ccc(NC(=O)CSc2nc3ccc(NC(=O)c4ccc(Cl)cc4)cc3s2)cc1` [compound 77], the “Therapeutic Index (TI)” value is given as “++ (compounds with a TI of 1 to 5 were labelled as ++)”.

Take `CCCCOc1ccc(C(=O)Nc2ccc3nc(SCC(=O)Nc4ccc(C(C)=O)cc4)sc3c2)cc1` [compound 78]: the “Therapeutic Index (TI)” value is “++ (compounds with a TI of 1 to 5 were labelled as ++)”.

For the molecule `COc1ccc(NC(=O)CSc2nc3ccc(NC(=O)c4cccc(Cl)c4)cc3s2)cc1` [compound 79], the “Therapeutic Index (TI)” value is given as “++ (compounds with a TI of 1 to 5 were labelled as ++)”.

As to `CCOc1ccc(C(=O)Nc2ccc3nc(SCC(=O)Nc4cccc(C)c4)sc3c2)cc1` [compound 80], the “Therapeutic Index (TI)” value was “++ (compounds with a TI of 1 to 5 were labelled as ++)”.

Turning to `Cc1ccc(C(=O)Nc2ccc3nc(SCC(=O)N(C)c4ccccc4)sc3c2)cc1` [compound 81], the “Therapeutic Index (TI)” value is recorded as “++ (compounds with a TI of 1 to 5 were labelled as ++)”.

On to `CCCCOc1ccc(C(=O)Nc2ccc3nc(SCC(=O)Nc4ccc(C(C)C)cc4)sc3c2)cc1` [compound 82], for which the “Therapeutic Index (TI)” value was “++ (compounds with a TI of 1 to 5 were labelled as ++)”.

Turning to `COc1ccc(C(=O)Nc2ccc3nc(SCC(=O)Nc4cccc(C)c4)sc3c2)cc1` [compound 83], the “Therapeutic Index (TI)” value was “++ (compounds with a TI of 1 to 5 were labelled as ++)”.

On to `COc1ccccc1C(=O)Nc1ccc2nc(SCC(=O)Nc3ccc(F)cc3)sc2c1` [compound 84], for which the “Therapeutic Index (TI)” value is recorded as “++ (compounds with a TI of 1 to 5 were labelled as ++)”.
